Source: US9920014B2, “Selective inhibition of bacterial topoisomerase I” (THE FLORIDA INTERNATIONAL BOARD OF TRUSTEES MODESTO A. …, priority 2013, dated 2018)

Biological target: E. coli DNA Gyrase (Escherichia coli, UniProt P0AES4+P0AES6)
Test: Inhibition assay against E. coli DNA gyrase (plasmid supercoiling, agarose gel)
Type: biochemical
Conditions: 1 to 50 μM compound
Experimental: Inhibition Assays Against E. coli DNA Gyrase:
The reaction mixture (30 μl) contained 35 mM Tris-HCl at pH 7.5, 24 mM KCl, 4 mM MgCl2, 2 mM DTT, 1.75 mM ATP, 5 mM spermidine, 0.1 mg/ml BSA, 6.5% glycerol, 250 ng of the relaxed plasmid pBAD-GFPuv, 0.5 units of E. coli DNA Gyrase, and one of the compounds at a final concentration that ranges from 1 to 50 μM. All components were assembled on ice and incubated for 30 minutes at 37° C. After the incubation, the reactions were terminated by extraction with an equal volume of phenol. The topological state of the DNA samples was analyzed with 1% agarose gel electrophoresis in 1×TAE buffer, pH 7.8. Following electrophoresis, the agarose gel was stained with Ethidium Bromide, destained, and photographed under UV light. The intensity of DNA topoisomers was determined using KODAK 1D Image Analysis Software.

E. coli DNA Gyrase, sequence (P0AES4 whole entry, one chain of several): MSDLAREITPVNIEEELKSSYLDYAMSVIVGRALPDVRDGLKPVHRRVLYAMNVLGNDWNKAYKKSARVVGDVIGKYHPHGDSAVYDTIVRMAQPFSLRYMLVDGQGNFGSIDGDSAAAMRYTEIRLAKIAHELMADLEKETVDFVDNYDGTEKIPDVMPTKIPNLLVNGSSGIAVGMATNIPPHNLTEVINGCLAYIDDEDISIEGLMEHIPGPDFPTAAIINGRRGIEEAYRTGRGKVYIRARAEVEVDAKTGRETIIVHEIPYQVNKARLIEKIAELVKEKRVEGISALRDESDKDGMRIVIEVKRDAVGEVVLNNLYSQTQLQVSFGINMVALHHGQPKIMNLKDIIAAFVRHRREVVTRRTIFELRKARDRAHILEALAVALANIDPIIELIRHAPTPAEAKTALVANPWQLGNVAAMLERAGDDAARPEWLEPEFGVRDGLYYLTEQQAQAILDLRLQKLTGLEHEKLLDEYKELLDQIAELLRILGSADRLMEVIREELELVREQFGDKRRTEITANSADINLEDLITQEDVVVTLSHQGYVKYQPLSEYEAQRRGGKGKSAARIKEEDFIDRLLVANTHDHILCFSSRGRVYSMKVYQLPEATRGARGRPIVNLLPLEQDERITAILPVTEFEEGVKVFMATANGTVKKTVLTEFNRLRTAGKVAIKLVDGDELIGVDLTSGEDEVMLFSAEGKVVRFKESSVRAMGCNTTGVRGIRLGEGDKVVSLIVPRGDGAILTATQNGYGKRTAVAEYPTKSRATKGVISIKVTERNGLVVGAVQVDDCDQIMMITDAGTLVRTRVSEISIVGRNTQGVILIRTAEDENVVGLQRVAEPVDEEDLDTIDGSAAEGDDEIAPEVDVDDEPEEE

Structure (SMILES): CN1CCN(c2ccc3[nH]c(-c4ccc5[nH]c(-c6ccc(O)cc6)nc5c4)nc3c2)CC1 [Hoechst 33258, reference compound]
- inhibition of DNA gyrase's activities: did not inhibit
